The values that follow come from patent publication US20050074867A1, “Preservation of competent cells at ambient temperatures” (priority 2001, published 2005).

In this test the test system is Escherichia coli ATCC strain MM294 cells. The test is described as follows: Electroporation of E. coli MM294 cells with pUC18 (survival and efficiency). To be noted: cells loaded with 10% MAG, preserved (dried); average of three independent experiments. In kind it is cell-based. The protocol:
(2) Electroporation of fresh E. coli electrocompetent cells: Two aliquots of the concentrated cells (50 μl each) were transferred into pre-chilled Eppendorf tubes (1.5 ml) and 2 μl of pUC18 plasmid DNA (approx. 300 ng/μl) were added to the tubes. The [cells+DNA] mixtures were incubated on ice for 5 minutes and transferred into pre-chilled cuvettes for electroporation. The cells were electroporated by using a BTX T-100 electroporator, at 625 or at 800 volts (V) in BTX cuvettes (0.1 cm gap, P/N 610 Disposable Cuvettes) with a time constant “r” equal 5 msec. Under the pulse conditions described above, the cells were subjected to an electrical field “E” equal to 6.25 kV/cm or 8.0 kV/cm.
Immediately after the pulse, the cells were transferred into small glass tubes (10×100 mm) with 0.5 ml of “outgrowth medium” (L-broth+20% sucrose+10 mM CaCl2). The electroporated bacteria were incubated at 37° C. with moderate shaking (150 rpm) for 60 minutes. When the 60 minutes period elapsed, the cells were diluted in “outgrowth medium” and duplicate samples were spread plated on L-agar plates with no antibiotic (to determine electroporation survival) and on L-agar plates with 50 μg/ml or 100 μg/ml of ampicillin (selective marker on pUC18 plasmid; to determine electroporation efficiency). The plates were incubated overnight at 37° C. and the colonies were counted the next day.
(6) Electroporation of dried (preserved) E. coli cells: One or two 50 μl aliquots were removed from each rehydrated vial and transferred to pre-chilled Eppendorf tubes. The cells were mixed with pUC18 plasmid DNA (300 ng/μl) and electroporated using the conditions described previously for the electroporation of fresh electrocompetent cells.
Electroporation survival was calculated as the number of viable cells recovered after electrical pulse per total number of electroportated cells. Electroporation efficiency was calculated as the number of transformants (cells which received pUC18 plasmid DNA) per number of cells recovered after electroporation (electroporation survival). When applicable, the electroporation efficiency was also expressed as number of transformants per 1 μg of pUC18 DNA (Cfu/μg).
In this experiment, the cells were washed twice in ice-cold 20% sucrose and concentrated 100-fold after the second wash. Additionally, four samples were prepared (A, B, C, and D). […] Additional solution consisting of 22.5% 4:1 sucrose:MAG was prepared and evaluated for preservation of the cells (sample D). […] Electroporation survival and efficiencies in samples rehydrated with solutions containing different amounts of sucrose were determined. […] Electroporation survival and efficiencies were determined and compared.

For the molecule `COC1OC(CO)C(O)C(O)C1O` (stereo not shown) [MAG, a-methyl-glucoside], the “Electroporation Efficiency 10^−3%” value is 5.6 10^−3%, the “Electroporation Efficiency Cfu/ml” value was 1.7 × 10^5 Cfu/ml, the “Electroporation Survival (%)” value was 28.6% and the “Electroporation Survival Cfu/ml” value was 3.0 × 10^9 Cfu/ml.
